For 21 compounds, TGI and GI50 results are on record in PubChem BioAssay (NCI).

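Cultured in 96-well plates, cells were exposed to test compound for 48 hours across five concentrations. Abbreviation: GI50, concentration required for 50% inhibition of growth. Definition used: TGI = concentration required for complete inhibition of growth.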

Holding throughout (test): inhibition of tumour cell growth, NCI panel, 48 h
The subject of test [1] is EKVX NSCLC.
For test [2], the system named is HOP-62 NSCLC.
Test [3] concerns HOP-92 NSCLC.
In test [4] the test system is HS 578T breast.
Test [5] deals with HT29 colon.
The subject of test [6] is NCI-H23 lung.
For test [7], the system named is OVCAR-5 ovarian.
Test [8] relates to SK-MEL-28 melanoma.
In test [9] the test system is SR leukemia.
The test system of test [10] is A498 renal.

Turning to `Cc1cccc(N=N/C(=N\NC(=O)c2cc(Cl)ccc2O)c2ccc(N(CCC#N)CCC#N)cc2C)c1`, the TGI was greater than 100 µM in test [1]; greater than 100 µM in test [2]; 60.7 µM in test [3]; greater than 100 µM in test [4]; 74 µM in test [5]; greater than 100 µM in test [6]. Besides, the TGI is greater than 100 µM in test [7], greater than 100 µM in [8] and 52.4 µM in test [9].
In the case of `O=C1CN(c2ccccc2)C(=O)CN1NCNN1CC(=O)N(c2ccccc2)CC1=O`, the TGI in test [10], in test [1], in test [2], in [3], in [4] and in test [5] was greater than 100 µM each time. For the same compound, the TGI in [6], in [7], in test [8] and in [9] was greater than 100 µM throughout.
`[O-][N+]1=C2CCC/C(=N/O)C2(O)C2CCCCC21N1CCOCC1` (centres undefined): the TGI in test [1], in [2], in test [4], in test [5], in test [6] and in test [7] was greater than 100 µM in each case. Further, the TGI in test [8] and in test [9] was greater than 100 µM each time.
With `CC(C)C(/C=C/c1ccc(Cl)cc1)=N\NC(=O)N/N=C(/C=C/c1ccc(Cl)cc1)C(C)C`, the TGI is 33.9 µM in test [10]; 50.5 µM in test [1]; 47.3 µM in [2]; 56.9 µM in test [3]; 50.8 µM in test [4]; greater than 100 µM in [5]. Besides, the TGI is 55.9 µM in [6], greater than 100 µM in [7], greater than 100 µM in [8] and 80.7 µM in test [9].
With `COc1ccc(Nc2cc(=O)[nH]c(=O)[nH]2)cc1`, the TGI in test [10], in test [1], in [2], in test [3], in test [4] and in test [5] was greater than 100 µM throughout. In addition, the TGI in [6], in test [7], in test [8] and in test [9] was greater than 100 µM each time.
For `CC1(C)N([O-])[N+](=O)C1(C)O` (centres undefined), the TGI in test [10], in test [1], in test [4], in [5], in test [6] and in [7] was greater than 100 µM each time. Moreover, the TGI in [8] and in test [9] was greater than 100 µM each time.
Regarding `O=C1OC(c2ccccc2Br)=N/C1=C/c1ccccc1`, the TGI was greater than 100 µM in test [10]; greater than 100 µM in test [1]; 49.4 µM in test [2]; greater than 100 µM in test [4]; greater than 100 µM in [5]; greater than 100 µM in test [6]. For the same compound, the TGI in test [7], in [8] and in [9] was greater than 100 µM in each case.
On to `CCOC(=O)CC1Nc2ccccc2C12CCc1c([nH]c3ccccc13)C2C(=O)OCC` (centres undefined), for which the TGI was greater than 100 µM in test [10]; greater than 100 µM in test [1]; greater than 100 µM in [2]; greater than 100 µM in [4]; 40.1 µM in test [5]; greater than 100 µM in [6]. Further, the TGI in [7], in [8] and in [9] was greater than 100 µM throughout.
For `C[C@@H](c1ccccc1)N1CO[C@@]2(C#Cc3ccc4c(c3)OCO4)CCC[C@@H]12`, the TGI in test [1] worked out at 52.6 µM; in test [2], 29.3 µM; in test [3], 19.7 µM; in test [4], 33.4 µM; in [5] it was 34.6 µM; in test [6], 28.8 µM. For the same compound, the TGI in test [7] was 32 µM; in test [8] it was 39 µM; in test [9], 32.5 µM.
As to `COC(=O)c1c2c(cc3c1CC1(C3)Cc3cc4c(c(C(=O)OC)c3C1)CCC4)CCC2`, the TGI in test [10], in [1], in test [2], in test [3], in [4] and in test [5] was greater than 100 µM in each case. Moreover, the TGI in test [6], in test [7] and in test [9] was greater than 100 µM throughout.
For `O=C(CCCn1ccnc1[N+](=O)[O-])NCCn1cnc([N+](=O)[O-])n1`, the TGI in test [10], in [2], in [3], in test [4], in [5] and in test [6] was greater than 100 µM each time. Further, the TGI in test [7], in [8] and in test [9] was greater than 100 µM in each case.
For the compound `S=C1NNC2(C(=S)N1)c1ccccc1-c1ccccc12`, the TGI in test [10], in test [1], in test [2], in [3], in [4] and in test [5] was greater than 10 µM throughout. In addition, the TGI in [6] and in test [9] was greater than 10 µM in each case.
For `CCOc1cc2c(cc1O)C(=O)C[C@@H]1[C@@H]2CC[C@]2(C)[C@@H](O)CC[C@@H]12`, the TGI in [10] is greater than 29.1 µM; in test [1], greater than 100 µM; in test [2], greater than 100 µM; in [3], greater than 100 µM; in test [4], greater than 12.4 µM; in [5], 29.9 µM. Besides, the TGI in test [6] was 43.7 µM; in [7] it was greater than 100 µM; in test [8], greater than 73.5 µM.
Consider `CC(C)=CCc1cc(/C=C/C(=O)O)cc(CC=C(C)C)c1O`, for which the TGI in [10], in test [1], in test [2], in test [3], in test [4] and in test [5] was greater than 100 µM in each case. Moreover, the TGI in test [6], in test [7] and in test [9] was greater than 100 µM each time.
`CC(=O)OCC1OC(O[C@H]2C=C[C@@H](C(=O)OCc3ccccc3)n3c(=O)n(-c4ccccc4)c(=O)n32)C(OC(C)=O)C(OC(C)=O)C1OC(C)=O` (some centres undefined): the TGI in [10] worked out at 5.33 µM; in test [1], 3.9 µM; in test [3], 3.9 µM; in test [4], 4.55 µM; in [5] it was 3.49 µM; in test [6] it was 9.02 µM. Moreover, the TGI came to 4.75 µM in test [7], 5.28 µM in test [8] and 5.92 µM in test [9].
Take `COC(=O)[C@H](Cc1ccccc1)NC(=O)N(CCNC(=O)OC(C)(C)C)c1ccccc1`: the TGI in test [10], in [1], in test [2], in test [4], in test [5] and in test [6] was greater than 100 µM throughout. Also, the TGI in test [7], in test [8] and in [9] was greater than 100 µM each time.
In the case of `Cc1cc(N=Cc2c(CO)cnc(C)c2O)c(N=Cc2c(CO)cnc(C)c2O)cc1C`, the TGI in [10], in [1], in test [2], in test [4], in test [5] and in test [6] was greater than 100 µM each time. The TGI in test [7], in test [8] and in test [9] was greater than 100 µM in each case. For the same compound, in test [9], the GI50 was 41.2 µM.
In the case of `CN(/N=C/C=N/N(C)C1=NCCN1)C1=NCCN1`, the TGI in test [1], in [2], in test [3], in test [4], in test [5] and in [6] was greater than 100 µM throughout. The TGI in test [7], in [8] and in test [9] was greater than 100 µM in each case.
Regarding `O=C(O)c1ccc(Nc2cnc3cc(C(F)(F)F)ccc3n2)cc1`, the TGI in test [1], in test [2], in test [4], in test [5], in test [6] and in [7] was greater than 100 µM throughout. For the same compound, the TGI in test [8] and in [9] was greater than 100 µM in each case.
With `CCCCCCc1cc2cc(C(=O)Nc3cccc(F)c3)c(=N)oc2cc1O`, the TGI in [10] worked out at 15 µM; in test [1], 6.44 µM; in test [2] it was 17.7 µM; in test [4], 6.81 µM; in [5], 78.6 µM; in [6], 5.06 µM. Further, the TGI was determined as 48.6 µM in test [7], 9.51 µM in test [8] and 6.29 µM in test [9].
In the case of `O=C(CC(=O)N1N=C(N(c2ccccc2)c2ccccc2)CC1c1ccccc1)Nc1cccc(Cl)c1` (centres undefined), the TGI in test [1], in test [2], in test [3], in [4], in [5] and in test [6] was greater than 100 µM each time. The TGI in test [7], in test [8] and in test [9] was greater than 100 µM in each case.
